Reference: paper PMC5760651, “Peptidomimetic blockade of MYB in acute myeloid leukemia” (Nature Communications, 2018)
Non-standard residues stand in square brackets, D forms with d. Residues, ends and D or L forms follow the SMILES beside them. No end group written: not given here. *: point of attachment. Biotin = O=C1N[C@H]2[C@H](CS[C@H]2CCCCC(=O)*)N1

Tests used:
[1] = test system: MOLM-13, MV-411, ML-2 and HL-60 cells; test: Cell viability of AML cell lines; format: cell-based, human; conditions: 6 days, 20 μM TG1, TG2 or TG3, 10 and 20 μM MYBMIM, peptide replacement every 48 h, compared to untreated control
Description: (§1) Cells were resuspended and plated at a concentration of 2 × 10^5 cells in 200 μl in 96-well tissue culture plates. Media with peptides was replaced every 48 h. To assess the number of viable cells, cells were resuspended in PBS and 10 µl of suspension was mixed in a 1:1 ratio with 0.4% Trypan Blue (Thermo Fisher) and counted using a hemacytometer (Hausser Scientific, Horsham, PA, USA). To assess viability using an ATP-based assay, cell viability was assessed using the CellTiter-Glo Luminescent Viability assay, according to the manufacturer’s instructions (Promega). Luminescence was recorded using the Infinite M1000Pro plate reader using integration time of 250 ms (Tecan).

[2] = test system: MOLM13, OCIAML2, and K562 cells; test: Cell viability with L-amino acid containing peptides; format: cell-based; conditions: 20 μM, 2 days, three biological replicates
Description: as §1
Supplementary Figure 5. Viability of MOLM13, OCIAML2, and K562 cells, treated for 2 days with control PBS (black), 20 μM TATMYG (blue), and 20 μM TATMYB (red). Error bars […]
between treatment conditions.
(1 picture or pasted object on this page, not shown here)

[3] = target: FITC-conjugated MYB peptide (L-amino acid containing counterpart of MYBMIM) (UniProt P10242); test: MST
[4] = Plasma pharmacokinetics of BIO-MYBMIM, spectrophotometric avidin assay; format: in vivo, mouse; conditions: C57BL/6J mice, single dose 25 mg/kg IP
Description: All mouse experiments were carried out in accordance with the Memorial Sloan Kettering Institutional Animal Care and Use Committee. For toxicity studies, female C57BL/6J mice (The Jackson Laboratory, Bar Harbor, Maine, USA) were treated with MYBMIM peptide suspended in PBS and administered daily through intraperitoneal injection at a dose of 25 mg/kg for a total of 7 days. Mice were sacrificed at the end of treatment for hematologic, biochemical and histologic analyses. For pharmacokinetic studies, C57BL/6J mice (The Jackson Laboratory, Bar Harbor, Maine, USA) were treated with a single IP injection of 25 mg/kg BIO-MYBMIM, and blood plasma was collected 30 min, 2 h, 4 h, and 24 h post-injection. Quantification of BIO-MYBMIM was measured using the Quant-Tag Biotin kit (Vector Labs, cat. # BDK-2000) following the manufacturer instructions. For patient-derived xenografts, two hundred thousand primary AML MLL-rearranged leukemia cells were suspended in […] of PBS and transplanted via tail vein injection into 8-week-old sublethally irradiated (200 rad) female NOD.Cg-Prkdc(scid)Il2rg(tm1Wjl)/SzJ mice (The Jackson Laboratory, Bar Harbor, Maine, USA). […] Mice were treated from days 3–17 of this study for a total of 14 days and then monitored daily with clinical examination for survival analysis.

[5] = target: T1, purified recombinant CBP KIX domain (UniProt P45481 586-665); test: MST; conditions: both partners purified
T1 construct: also called KIX domain of CBP; source: E. coli BL21(DE3), pGEX-KIX, purified (glutathione agarose, thrombin cleavage, MonoS cation exchange)
T1 sequence (P45481 586-665): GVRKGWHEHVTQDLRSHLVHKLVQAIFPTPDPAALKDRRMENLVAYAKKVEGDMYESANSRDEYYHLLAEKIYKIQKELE

## CC[C@@H](C)[C@@H](NC(=O)[C@@H](CCCCN)NC(=O)[C@@H](CCC(=O)O)NC(=O)[C@@H](CC(C)C)NC(=O)[C@@H](CCC(=O)O)NC(=O)[C@@H](CC(C)C)NC(=O)[C@@H](CC(C)C)NC(=O)CNC(=O)[C@@H](CCSC)NC(=O)[C@@H](CO)NC(=O)[C@H](NC(=O)[C@@H](CCC(=O)O)NC(=O)[C@@H](CC(N)=O)NC(=O)CNC(=O)[C@@H](CC(C)C)NC(=O)[C@@H](CCCCN)NC(C)=O)[C@H](C)O)C(=O)N[C@H](CCCNC(=N)N)C(=O)N[C@H](CCCCN)C(=O)NCC(=O)NCC(=O)N[C@H](CCCNC(=N)N)C(=O)N[C@H](CCCNC(=N)N)C(=O)N[C@H](CCCNC(=N)N)C(=O)N[C@H](CCC(N)=O)C(=O)N[C@H](CCCNC(=N)N)C(=O)N[C@H](CCCNC(=N)N)C(=O)N[C@H](CCCCN)C(=O)N[C@H](CCCCN)C(=O)N[C@H](CCCNC(=N)N)C(=O)NCC(=O)N[C@H](Cc1ccc(O)cc1)C(N)=O [TG2] (Ac-[dK][dL]G[dN][dE][dT][dS][dM]G[dL][dL][dE][dL][dE][dK][dI][dR][dK]GG[dR][dR][dR][dQ][dR][dR][dK][dK][dR]G[dY]-NH2)
[1]
  Growth of AML cell lines: inactive

## Ac-YGRKKRRQRRRGGKRIKELELLLMSTENGLK-NH2 [TATMYG]
[2]
  Viability: no significant differences

## Ac-YGRKKRRQRRRGGKRIKELELLLMSTENELK-NH2 [TATMYB]
[2]
  Viability: no significant differences

## CC[C@@H](C)[C@@H](NC(=O)[C@@H](CCCCN)NC(=O)[C@@H](CCC(=O)O)NC(=O)[C@@H](CC(C)C)NC(=O)[C@@H](CCC(=O)O)NC(=O)[C@@H](CC(C)C)NC(=O)[C@@H](CC(C)C)NC(=O)CNC(=O)[C@@H](CCSC)NC(=O)[C@@H](CO)NC(=O)[C@H](NC(=O)[C@@H](CCC(=O)O)NC(=O)[C@@H](CC(N)=O)NC(=O)[C@@H](CCC(=O)O)NC(=O)[C@@H](CC(C)C)NC(=O)[C@@H](CCCCN)NC(C)=O)[C@H](C)O)C(=O)N[C@H](CCCNC(=N)N)C(=O)N[C@H](CCCCN)C(=O)NCC(=O)NCC(=O)N[C@H](CCCNC(=N)N)C(=O)N[C@H](CCCNC(=N)N)C(=O)N[C@H](CCCNC(=N)N)C(=O)N[C@H](CCC(N)=O)C(=O)N[C@H](CCCNC(=N)N)C(=O)N[C@H](CCCNC(=N)N)C(=O)N[C@H](CCCCN)C(=O)N[C@H](CCCCN)C(=O)N[C@H](CCCNC(=N)N)C(=O)NCC(=O)N[C@H](Cc1ccc(O)cc1)C(N)=O [TG1] (Ac-[dK][dL][dE][dN][dE][dT][dS][dM]G[dL][dL][dE][dL][dE][dK][dI][dR][dK]GG[dR][dR][dR][dQ][dR][dR][dK][dK][dR]G[dY]-NH2)
[1]
  Growth of AML cell lines: inactive

## purified recombinant CBP KIX domain (from UniProt P45481 586-665) (domain or fragment)
[3]
  Kd: 4.2 µM

## CC[C@@H](C)[C@@H](NC(=O)[C@@H](CCCCN)NC(=O)[C@@H](CCC(=O)O)NC(=O)[C@@H](CC(C)C)NC(=O)[C@@H](CCC(=O)O)NC(=O)[C@@H](CC(C)C)NC(=O)[C@@H](CC(C)C)NC(=O)[C@@H](CC(C)C)NC(=O)[C@@H](CCSC)NC(=O)[C@@H](CO)NC(=O)[C@H](NC(=O)[C@@H](CCC(=O)O)NC(=O)[C@@H](CC(N)=O)NC(=O)[C@@H](CCC(=O)O)NC(=O)[C@@H](CC(C)C)NC(=O)[C@@H](CCCCN)NC(C)=O)[C@H](C)O)C(=O)N[C@H](CCCNC(=N)N)C(=O)N[C@H](CCCCN)C(=O)NCC(=O)NCC(=O)N[C@H](CCCNC(=N)N)C(=O)N[C@H](CCCNC(=N)N)C(=O)N[C@H](CCCNC(=N)N)C(=O)N[C@H](CCC(N)=O)C(=O)N[C@H](CCCNC(=N)N)C(=O)N[C@H](CCCNC(=N)N)C(=O)N[C@H](CCCCN)C(=O)N[C@H](CCCCN)C(=O)N[C@H](CCCNC(=N)N)C(=O)NCC(=O)N[C@H](Cc1ccc(O)cc1)C(=O)N[C@H](CCCCNC(=O)CCCC[C@@H]1SC[C@@H]2NC(=O)N[C@@H]21)C(N)=O [BIO-MYBMIM] (Ac-[dK][dL][dE][dN][dE][dT][dS][dM][dL][dL][dL][dE][dL][dE][dK][dI][dR][dK]GG[dR][dR][dR][dQ][dR][dR][dK][dK][dR]G[dY][dK](Biotin)-NH2)
[4]
  Plasma elimination: biphasic elimination
[4]; plasma collected at 30 min, 2 h, 4 h, 24 h
  Time of peak plasma peptide levels post injection: ≤ 30 min

## [dK][dL]G[dN][dE][dT][dS][dM]G[dL][dL][dE][dL][dE][dK][dI]G[dK]GG[dR][dR][dR][dQ][dR][dR][dK][dK][dR]G[dY]-NH2 (also: FITC-conjugated, site not given here) [FITC-conjugated TG3]
[5]
  Kd: 114 ± 36.6 µM

## [dK][dL][dE][dN][dE][dT][dS][dM]G[dL][dL][dE][dL][dE][dK][dI][dR][dK]GG[dR][dR][dR][dQ][dR][dR][dK][dK][dR]G[dY]-NH2 (also: FITC-conjugated, site not given here) [FITC-conjugated TG1]
[5]
  Kd: 59.2 ± 12.4 µM

B1: FITC-conjugated MYBMIM (peptide)
chain: [dK][dL][dE][dN][dE][dT][dS][dM][dL][dL][dL][dE][dL][dE][dK][dI][dR][dK]
modifications: also: FITC-conjugated, site not given here, retro-inverso TAT delivery segment not in chain
[5]
  Kd: 21.3 ± 2.9 µM

## [dK][dL]G[dN][dE][dT][dS][dM]G[dL][dL][dE][dL][dE][dK][dI][dR][dK]GG[dR][dR][dR][dQ][dR][dR][dK][dK][dR]G[dY]-NH2 (also: FITC-conjugated, site not given here) [FITC-conjugated TG2]
[5]
  Kd: 75.1 ± 12.5 µM
